According to PubChem BioAssay (NCI):
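GI50 = concentration required for 50% inhibition of growth. TGI denotes the concentration required for complete inhibition of growth.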

Experiments:
Assay in all cases: NCI anticancer screen, dose series, 384-well format
ACHN renal = system: ACHN renal
A498 renal = system: A498 renal
SW-620 colon = system: SW-620 colon
NCI-H522 lung = system: NCI-H522 lung
OVCAR-5 ovarian = system: OVCAR-5 ovarian
NCI-H23 lung = system: NCI-H23 lung
T-47D breast = system: T-47D breast
SNB-19 CNS = system: SNB-19 CNS
MDA-MB-468 breast = system: MDA-MB-468 breast
786-0 renal = system: 786-0 renal
NCI-H226 lung = system: NCI-H226 lung
COLO 205 colon = system: COLO 205 colon
CCRF-CEM leukemia = system: CCRF-CEM leukemia
NCI/ADR-RES ovarian = system: NCI/ADR-RES ovarian
UACC-62 melanoma = system: UACC-62 melanoma
RXF 393 renal = system: RXF 393 renal
PC-3 prostate = system: PC-3 prostate
HS 578T breast = system: HS 578T breast
SF-268 CNS = system: SF-268 CNS
HOP-92 NSCLC = system: HOP-92 NSCLC
M14 melanoma = system: M14 melanoma
SF-295 CNS = system: SF-295 CNS
EKVX NSCLC = system: EKVX NSCLC
SK-OV-3 ovarian = system: SK-OV-3 ovarian
HOP-62 NSCLC = system: HOP-62 NSCLC
SN12C renal = system: SN12C renal
MDA-MB-231 breast = system: MDA-MB-231 breast
DU-145 prostate = system: DU-145 prostate
SK-MEL-2 melanoma = system: SK-MEL-2 melanoma
NCI-H322M lung = system: NCI-H322M lung
HT29 colon = system: HT29 colon
SK-MEL-28 melanoma = system: SK-MEL-28 melanoma
HCC-2998 colon = system: HCC-2998 colon
BT-549 breast = system: BT-549 breast
SK-MEL-5 melanoma = system: SK-MEL-5 melanoma
CAKI-1 renal = system: CAKI-1 renal
MOLT-4 leukemia = system: MOLT-4 leukemia
MCF7 breast = system: MCF7 breast
IGROV1 ovarian = system: IGROV1 ovarian
HCT-15 colon = system: HCT-15 colon
K-562 leukemia = system: K-562 leukemia
SR leukemia = system: SR leukemia
RPMI-8226 leukemia = system: RPMI-8226 leukemia
U251 glioblastoma = system: U251 glioblastoma
TK-10 renal = system: TK-10 renal
OVCAR-4 ovarian = system: OVCAR-4 ovarian
UACC-257 melanoma = system: UACC-257 melanoma

C=CC(=O)Nc1cccc(Oc2nc(Nc3ccc(N4CCN(C)CC4)cc3)nc3ccsc23)c1
GI50 (ACHN renal): 1260 nM
TGI (ACHN renal): 2690 nM
GI50 (A498 renal): 1220 nM
TGI (A498 renal): 2490 nM
GI50 (SW-620 colon): 1740 nM
TGI (SW-620 colon): 3.14 µM
GI50 (NCI-H522 lung): 334 nM
TGI (NCI-H522 lung): 1410 nM
GI50 (OVCAR-5 ovarian): 2020 nM
TGI (OVCAR-5 ovarian): 5.79 µM
GI50 (NCI-H23 lung): 1940 nM
TGI (NCI-H23 lung): 5.37 µM
GI50 (T-47D breast): 1500 nM
TGI (T-47D breast): 2840 nM
GI50 (SNB-19 CNS): 1820 nM
TGI (SNB-19 CNS): 3.7 µM
GI50 (MDA-MB-468 breast): 191 nM
TGI (MDA-MB-468 breast): 629 nM
GI50 ([…]-0 renal): 1460 nM
TGI (786-0 renal): 2810 nM
GI50 (NCI-H226 lung): 1570 nM
TGI (NCI-H226 lung): 3.88 µM
GI50 (COLO 205 colon): 1830 nM
TGI (COLO 205 colon): 3.25 µM
GI50 (CCRF-CEM leukemia): 1500 nM
TGI (CCRF-CEM leukemia): 2840 nM
GI50 (NCI/ADR-RES ovarian): 1940 nM
TGI (NCI/ADR-RES ovarian): 4 µM
GI50 (UACC-62 melanoma): 1520 nM
TGI (UACC-62 melanoma): 2870 nM
GI50 (RXF 393 renal): 1230 nM
TGI (RXF 393 renal): 2490 nM
GI50 (PC-3 prostate): 1700 nM
TGI (PC-3 prostate): 3.12 µM
GI50 (HS 578T breast): 1450 nM
TGI (HS 578T breast): 2800 nM
GI50 (SF-268 CNS): 1840 nM
TGI (SF-268 CNS): 4.01 µM
GI50 (HOP-92 NSCLC): 1370 nM
TGI (HOP-92 NSCLC): 2950 nM
GI50 (M14 melanoma): 1890 nM
TGI (M14 melanoma): 3.32 µM
GI50 (SF-295 CNS): 5.01 µM
TGI (SF-295 CNS): 15.7 µM
GI50 (EKVX NSCLC): 1310 nM
TGI (EKVX NSCLC): 3.84 µM
GI50 (SK-OV-3 ovarian): 1570 nM
TGI (SK-OV-3 ovarian): 4.19 µM
GI50 (HOP-62 NSCLC): 2000 nM
TGI (HOP-62 NSCLC): 4.54 µM
GI50 (SN12C renal): 1350 nM
TGI (SN12C renal): 2750 nM
GI50 (MDA-MB-231 breast): 1700 nM
TGI (MDA-MB-231 breast): 3.33 µM
GI50 (DU-145 prostate): 1420 nM
TGI (DU-145 prostate): 3.21 µM
GI50 (SK-MEL-2 melanoma): 1610 nM
TGI (SK-MEL-2 melanoma): 2970 nM
GI50 (NCI-H322M lung): 902 nM
TGI (NCI-H322M lung): 3.35 µM
GI50 (HT29 colon): 1740 nM
TGI (HT29 colon): 3.16 µM
GI50 (SK-MEL-28 melanoma): 1740 nM
TGI (SK-MEL-28 melanoma): 3.14 µM
GI50 (HCC-2998 colon): 1700 nM
TGI (HCC-2998 colon): 3.09 µM
GI50 (BT-549 breast): 1380 nM
TGI (BT-549 breast): 2690 nM
GI50 (SK-MEL-5 melanoma): 1840 nM
TGI (SK-MEL-5 melanoma): 3.25 µM
GI50 (CAKI-1 renal): 833 nM
TGI (CAKI-1 renal): 2150 nM
GI50 (MOLT-4 leukemia): 1530 nM
TGI (MOLT-4 leukemia): 2890 nM
GI50 (MCF7 breast): 1550 nM
TGI (MCF7 breast): 2960 nM
GI50 (IGROV1 ovarian): 1060 nM
TGI (IGROV1 ovarian): 2260 nM
GI50 (HCT-15 colon): 1560 nM
TGI (HCT-15 colon): 3.03 µM
GI50 (K-562 leukemia): 1380 nM
TGI (K-562 leukemia): 2720 nM
GI50 (SR leukemia): 857 nM
TGI (SR leukemia): 1950 nM
GI50 (RPMI-8226 leukemia): 1460 nM
TGI (RPMI-8226 leukemia): 2780 nM
GI50 (U251 glioblastoma): 1650 nM
TGI (U251 glioblastoma): 3.06 µM
GI50 (TK-10 renal): 957 nM
TGI (TK-10 renal): 2250 nM
GI50 (OVCAR-4 ovarian): 1690 nM
TGI (OVCAR-4 ovarian): 3.13 µM
GI50 (UACC-257 melanoma): 1520 nM
TGI (UACC-257 melanoma): 2870 nM
